Starred links: 1 amine or outer side, 2 acyl side, 3 side chain; linkers in the order of their positions; H or OH if unused. Non-standard residues stand in square brackets, D forms with d. Residues, ends and D or L forms follow the SMILES beside them. *: point of attachment. NH(4-phenylbutyl) = c1ccc(CCCCN*)cc1; X1 = C[C@H](N[*:1])C(=O)C(=O)[*:2]; NHPhenethyl = c1ccc(CCN*)cc1
How the values were obtained:
[1] = test system: TmROM; assay: activity-based probe competition assay, rhomboid panel; assay type: biochemical, Thermotoga maritima; details: 50 μM
From the text: Any enzyme inhibitors to be used as specific tools for cell biology or as starting points for drug development must show sufficient level of selectivity toward their intended target. This is particularly important for compounds that react with the catalytic nucleophile common to many serine hydrolases. Only limited tests of selectivity have been conducted for the currently used rhomboid inhibitors isocoumarins, β-lactams and β-lactones, at best interrogating them against trypsin or chymotrypsin ([Pierrat et al., 2011], [Vosyka et al., 2013]). […]
Figure 5 Selectivity of Peptidyl Ketoamides (A) Selectivity of compounds 9, 10, and 11 for nine rhomboid proteases was profiled using activity-based probe competition assay at 50 μM and 0.5 μM concentration. […] (B) Selectivity of compounds 9, 10, and 11 against human serine hydrolases was analyzed using EnPlex as described ([Bachovchin et al., 2014]).
For inhibitor selectivity profiling against rhomboid proteases ([Wolf et al., 2015]), 400 ng of a purified protein preparation of E. coli GlpG was diluted in 30 μL of reaction buffer (20 mM HEPES, pH 7.4, with 0.05% (w/v) DDM). […] Gels were scanned on a Typhoon Trio+ and analyzed using ImageJ. The intensity of each rhomboid protease band calculated by ImageJ was normalized against its corresponding DMSO-treated counterpart (100% activity) to indicate the residual activity left after inhibition. […]

[2] = target: dipeptidylpeptidase 7 (DPP7) (Homo sapiens, UniProt Q9UHL4); assay: EnPlex multiplex ABP competition profiling; assay type: biochemical; details: off-target hit; concentration range where they inhibit rhomboid proteases
Method: (§1) Figure 5 Selectivity of Peptidyl Ketoamides (A) Selectivity of compounds 9, 10, and 11 for nine rhomboid proteases was profiled using activity-based probe competition assay at 50 μM and 0.5 μM concentration. The upper limit of enzyme concentration was 0.4 μM. (B) Selectivity of compounds 9, 10, and 11 against human serine hydrolases was analyzed using EnPlex as described ([Bachovchin et al., 2014]).
(§2) We next examined peptidyl ketoamides for their possible off-target effects on other serine proteases. To get a representative picture of the selectivity of peptidyl ketoamides, we employed a recently developed EnPlex technology, which allows multiplex analysis of ABP competition with about 100 human serine hydrolases, mostly proteases ([Bachovchin et al., 2014]).
(§3) For inhibitor selectivity profiling against rhomboid proteases ([Wolf et al., 2015]), 400 ng of a purified protein preparation of E. coli GlpG was diluted in 30 μL of reaction buffer (20 mM HEPES, pH 7.4, with 0.05% (w/v) DDM). For other rhomboids, amounts were taken that gave similar labeling intensity during profiling. Rhomboids were incubated for 30 min at room temperature with the indicated concentration of compound, 100 μM DCI as positive control, or an equal volume of DMSO as negative control. Next, TAMRA-FP serine hydrolase probe (Thermo Fisher #88318) was added to a final concentration of 1 ìM and incubated for 2 h at 37°C in the dark. The reaction was stopped by addition of 4× Laemmli buffer and the reaction mixture was resolved on 15% SDS-PAGE. Gels were scanned on a Typhoon Trio+ and analyzed using ImageJ. The intensity of each rhomboid protease band calculated by ImageJ was normalized against its corresponding DMSO-treated counterpart (100% activity) to indicate the residual activity left after inhibition. The remaining activity was used to calculate the percentage of inhibition depicted in the heatmap. Selectivity profiles against human serine hydrolases were determined by EnPlex as described previously ([Bachovchin et al., 2014]).

[3] = test system: about 100 human serine hydrolases; assay: EnPlex multiplex ABP competition profiling; assay type: biochemical; details: concentration range where the ketoamides inhibit rhomboid proteases
Method: as §1, §2, §3

Structure (SMILES) | inhibition of ABP labeling of TmROM [1] | inhibition of DPP7 (EnPlex) [2] | inhibition of human serine hydrolases (EnPlex selectivity profile) [3]
CC(=O)N[C@@H](CCCNC(=N)N)C(=O)N[C@H](C(=O)N[C@@H](CCCNC(=N)N)C(=O)N[C@@H](Cc1c[nH]cn1)C(=O)N[C@@H](C)C(=O)C(=O)NCCc1ccccc1)C(C)C [compound 9, Ac-RVRHA-CONH-phenylethyl] (Ac-RVRH[X1]-NHPhenethyl) | only partially inhibited | the sequence related dipeptidylpeptidase 7 (DPP7) | fail to inhibit most of the tested human serine hydrolases
CC(=O)N[C@@H](CCCNC(=N)N)C(=O)N[C@H](C(=O)N[C@@H](CCCNC(=N)N)C(=O)N[C@@H](Cc1c[nH]cn1)C(=O)N[C@@H](C)C(=O)C(=O)NCCCCc1ccccc1)C(C)C [compound 11, Ac-RVRHA-CONH-phenylbutyl] (Ac-RVRH[X1]-{NH(4-phenylbutyl)}) | only partially inhibited | the sequence related dipeptidylpeptidase 7 (DPP7) | fail to inhibit most of the tested human serine hydrolases
